From US20240247035A1, “STAPLED ANTIMICROBIAL PEPTIDES (STAMPS) AND USES THEREOF” (Lytica Therapeutics, Inc., priority 2021, published 2024)
Values after ≈ are worked out from the molar mass of the structure shown. Bridge positions count the residues as written; N and C are the ends. Square brackets hold non-standard residues; d marks the D form. Peptide text beside a SMILES is read from it. S5 = C=CCCC[C@](C)(N)C(=O)O; Orn = NCCC[C@H](N)C(=O)O; Dap = NC[C@H](N)C(=O)O

What was measured:
[1] = 90 minute cytotoxicity assay (LDH release), renal toxicity; assay type: cell-based; details: human
Experimental: (§1) Cell culture: RPTEC were maintained in MEM media supplemented with growth factors. HEPG2 cell line was maintained in Eagle's Minimum Essential Medium (EMEM) supplemented with fetal bovine serum to a final concentration of 10%.
90 minute cytotoxicity assay: Cells were plated in a 96-well format, and after overnight incubation, media was replaced with fresh media. Serial dilutions of StAMPs from a 5 mg/mL water stock, or vehicle, were added to the cells in a final volume of 100 μl. After incubating at 37° C. for 90 min, 50 μl of cell culture media was transferred to a clear 96-well plate, incubated with 50 μl of lactate dehydrogenase (LDH) assay reagent for 10 min, and absorbance measured at 490 nm on a microplate reader.
(§2) Renal toxicity was measured after 90 minutes of incubation, while liver toxicity was measured after 48 hours of incubation with StAMPs. N/A=not tested.

[2] = 48 hours cytotoxicity assay (CellTiter-Glo), liver toxicity; assay type: cell-based; details: human
Experimental: as §1
48 hours cytotoxicity assay: Cells were plated in a 96-well format, and after 4 hour incubation to allow attachment, serial dilutions of StAMPs from a 5 mg/mL water stock, or vehicle, were then added to the cells in a final volume of 100 μl. After incubating at 37° C. for 48 hours, 100 μl of CellTiter-Glo® reagent was added to the cells, and the plates were incubated 10 minutes at room temperature. Luminescence was then measured on a microplate reader.
as §2

Row | SMILES | IC50 at 90 min [1] [µg/mL] | IC50 at 48 hours [2] [µg/mL]
1 | CC[C@H](C)[C@H](NC(=O)[C@H](CCCCN)NC(=O)[C@H](CCCCN)NC(=O)CNC(=O)[C@H](CCCCN)NC(=O)[C@]1(C)CCCC=CCCC[C@](C)(NC(=O)CN)C(=O)N[C@@H](CCCCN)C(=O)N[C@@H](CO)C(=O)N[C@@H](CCCCN)C(=O)N1)C(=O)N[C@@H](CCCCN)C(=O)N[C@@H](CC(N)=O)C(=O)N[C@@H](CC(C)C)C(=O)N[C@@]1(C)CCCC=CCCC[C@@](C)(C(=O)N[C@@H](CCCCN)C(=O)NCC(N)=O)NC(=O)CNC(=O)[C@H](CO)NC(=O)[C@H]([C@@H](C)CC)NC1=O [compound 2] (H-G[S5]KSK[S5]KGKKIKNL[S5]ISG[S5]KG-NH2; staple 2-6, 15-19) | 203 (≈ 89.4 µM) | 109 (≈ 48 µM)
2 | CC[C@H](C)[C@H](NC(=O)CN)C(=O)N[C@@H](Cc1ccccc1)C(=O)N[C@@H](CO)C(=O)N[C@@H](CCCCN)C(=O)N[C@@H](CC(C)C)C(=O)N[C@@]1(C)CCCC=CCCC[C@@](C)(C(=O)N[C@@H](CCCCN)C(=O)N[C@@H](CC(N)=O)C(=O)N[C@@H](CC(C)C)C(=O)N[C@@H](CCCCN)C(=O)N[C@H](C(=O)N[C@@H](CO)C(=O)NCC(=O)N[C@@H](CC(C)C)C(=O)N[C@@H](CCCCN)C(=O)NCC(N)=O)[C@@H](C)CC)NC(=O)[C@H](CCCCN)NC(=O)[C@H](CCCCN)NC(=O)CNC1=O [compound 41] (H-GIFSKL[S5]GKK[S5]KNLKISGLKG-NH2; staple 7-11) | 147 (≈ 64.9 µM) | 172 (≈ 75.9 µM)
3 | CC[C@H](C)[C@@H]1NC(=O)[C@@](C)(NC(=O)[C@H](CC(C)C)NC(=O)[C@H](CC(N)=O)NC(=O)[C@H](CCCCN)NC(=O)[C@H](CC(C)C)NC(=O)[C@H](CCCCN)NC(=O)[C@H](CCCCN)NC(=O)CNC(=O)[C@H](C)NC(=O)[C@]2(C)CCCC=CCCC[C@](C)(NC(=O)CN)C(=O)N[C@@H](Cc3ccccc3)C(=O)N[C@@H](CO)C(=O)N[C@@H](CCCCN)C(=O)N2)CCCC=CCCC[C@@](C)(C(=O)N[C@@H](CCCCN)C(=O)N[C@@H](CC(N)=O)C(N)=O)NC(=O)CNC(=O)[C@H](CO)NC1=O [compound 13] (H-G[S5]FSK[S5]AGKKLKNL[S5]ISG[S5]KN-NH2; staple 2-6, 15-19) | 17 (≈ 7.42 µM) | 210 (≈ 91.7 µM)
4 | CC[C@H](C)[C@H](NC(=O)[C@H](CCCCN)NC(=O)[C@H](CCCCN)NC(=O)CNC(=O)[C@H](CCCCN)NC(=O)[C@]1(C)CCCC=CCCC[C@](C)(NC(=O)CN)C(=O)N[C@@H](Cc2ccccc2)C(=O)N[C@@H](CO)C(=O)N[C@@H](CCCCN)C(=O)N1)C(=O)N[C@@H](CCCCN)C(=O)N[C@@]1(C)CCCC=CCCC[C@@](C)(C(=O)NCC(=O)N[C@@H](CC(C)C)C(=O)N[C@@H](CCCCN)C(=O)NCC(N)=O)NC(=O)[C@H]([C@@H](C)CC)NC(=O)[C@H](CC(C)C)NC(=O)[C@H](CC(C)C)NC1=O [compound 34] (H-G[S5]FSK[S5]KGKKIK[S5]LLI[S5]GLKG-NH2; staple 2-6, 13-17) | 35 (≈ 15.1 µM) | 22 (≈ 9.5 µM)
5 | CC[C@H](C)[C@H](NC(=O)[C@H](CCCCN)NC(=O)[C@H](CCCCN)NC(=O)CNC(=O)[C@H](CCCCN)NC(=O)[C@]1(C)CCCC=CCCC[C@](C)(NC(=O)CN)C(=O)N[C@@H](Cc2ccccc2)C(=O)N[C@@H](CCCCN)C(=O)N[C@@H](CCCCN)C(=O)N1)C(=O)N[C@@H](CCCCN)C(=O)N[C@@H](CC(N)=O)C(=O)N[C@@H](CC(C)C)C(=O)N[C@@]1(C)CCCC=CCCC[C@@](C)(C(=O)N[C@@H](CCCCN)C(=O)NCC(N)=O)NC(=O)CNC(=O)[C@H](CO)NC(=O)[C@H]([C@@H](C)CC)NC1=O [compound 26] (H-G[S5]FKK[S5]KGKKIKNL[S5]ISG[S5]KG-NH2; staple 2-6, 15-19) | 32 (≈ 13.7 µM) | 27 (≈ 11.6 µM)
6 | CC[C@H](C)[C@H](NC(=O)[C@H](CCCCN)NC(=O)[C@H](CCCCN)NC(=O)[C@@H](NC(=O)[C@H](CCCCN)NC(=O)[C@]1(C)CCCC=CCCC[C@](C)(NC(=O)CN)C(=O)N[C@@H](CCCCN)C(=O)N[C@@H](CO)C(=O)N[C@@H](CCCCN)C(=O)N1)C(C)C)C(=O)N[C@@H](CCCCN)C(=O)N[C@@H](CC(N)=O)C(=O)N[C@@H](CC(C)C)C(=O)N[C@@]1(C)CCCC=CCCC[C@@](C)(C(=O)N[C@@H](CCCCN)C(=O)NCC(N)=O)NC(=O)CNC(=O)[C@H](CO)NC(=O)[C@H]([C@@H](C)CC)NC1=O [compound 7] (H-G[S5]KSK[S5]KVKKIKNL[S5]ISG[S5]KG-NH2; staple 2-6, 15-19) | 191 (≈ 82.6 µM) | 72 (≈ 31.1 µM)
7 | CC[C@H](C)[C@H](NC(=O)[C@H](CCCCN)NC(=O)[C@H](CCCCN)NC(=O)CNC(=O)[C@H](CCCCN)NC(=O)[C@]1(C)CCCC=CCCC[C@](C)(NC(=O)[C@@H](N)CCCCN)C(=O)N[C@@H](Cc2ccccc2)C(=O)N[C@@H](CO)C(=O)N[C@@H](CCCCN)C(=O)N1)C(=O)N[C@@H](CCCCN)C(=O)N[C@@H](CC(N)=O)C(=O)N[C@@H](CC(C)C)C(=O)N[C@@]1(C)CCCC=CCCC[C@@](C)(C(=O)N[C@@H](CCCCN)C(=O)NCC(N)=O)NC(=O)CNC(=O)[C@H](CO)NC(=O)[C@H]([C@@H](C)CC)NC1=O [compound 25] (H-K[S5]FSK[S5]KGKKIKNL[S5]ISG[S5]KG-NH2; staple 2-6, 15-19) | 109 (≈ 46.2 µM) | 49 (≈ 20.8 µM)
8 | CC[C@H](C)[C@H](NC(=O)[C@H](CCCCN)NC(=O)[C@H](CCCCN)NC(=O)CNC(=O)[C@H](CCCCN)NC(=O)[C@]1(C)CCCC=CCCC[C@](C)(NC(=O)CN)C(=O)N[C@@H](Cc2ccccc2)C(=O)N[C@@H](CO)C(=O)N[C@@H](CCCCN)C(=O)N1)C(=O)N[C@@H](CCCCN)C(=O)N[C@@H](CC(N)=O)C(=O)N[C@@]1(C)CCCC=CCCC[C@@](C)(C(=O)N[C@@H](CC(C)C)C(=O)N[C@@H](CCCCN)C(=O)NCC(N)=O)NC(=O)[C@H](CO)NC(=O)[C@H]([C@@H](C)CC)NC(=O)[C@H](CC(C)C)NC1=O [compound 33] (H-G[S5]FSK[S5]KGKKIKN[S5]LIS[S5]LKG-NH2; staple 2-6, 14-18) | 11 (≈ 4.69 µM) | 13 (≈ 5.54 µM)
9 | CC[C@H](C)[C@H](NC(=O)[C@H](CCCCN)NC(=O)[C@H](CCCCN)NC(=O)CNC(=O)[C@H](CCCCN)NC(=O)[C@]1(C)CCCC=CCCC[C@](C)(NC(=O)CN)C(=O)N[C@@H](CCCCN)C(=O)N[C@@H](CO)C(=O)N[C@@H](CCCCN)C(=O)N1)C(=O)N[C@@H](CCCCN)C(=O)N[C@@H](CC(N)=O)C(=O)N[C@@H](CC(C)C)C(=O)N[C@@]1(C)CCCC=CCCC[C@@](C)(C(=O)N[C@@H](CCCCN)C(=O)NCC(N)=O)NC(=O)[C@H](CCCCN)NC(=O)[C@H](CO)NC(=O)[C@H]([C@@H](C)CC)NC1=O [compound 5] (H-G[S5]KSK[S5]KGKKIKNL[S5]ISK[S5]KG-NH2; staple 2-6, 15-19) | 180 (≈ 76.9 µM) | 100 (≈ 42.7 µM)
10 | CC[C@H](C)[C@H](NC(=O)[C@H](CN)NC(=O)[C@H](CN)NC(=O)CNC(=O)[C@H](CN)NC(=O)[C@]1(C)CCCC=CCCC[C@](C)(NC(=O)CN)C(=O)N[C@@H](Cc2ccccc2)C(=O)N[C@@H](CO)C(=O)N[C@@H](CN)C(=O)N1)C(=O)N[C@@H](CN)C(=O)N[C@@H](CC(N)=O)C(=O)N[C@@H](CC(C)C)C(=O)N[C@@]1(C)CCCC=CCCC[C@@](C)(C(=O)N[C@@H](CN)C(=O)NCC(N)=O)NC(=O)CNC(=O)[C@H](CO)NC(=O)[C@H]([C@@H](C)CC)NC1=O [compound 16] (H-G[S5]FS[Dap][S5][Dap]G[Dap][Dap]I[Dap]NL[S5]ISG[S5][Dap]G-NH2; staple 2-6, 15-19) | > 200 | ~200 (≈ 98.2 µM)
11 | CC[C@H](C)[C@H](NC(=O)[C@H](CCCCN)NC(=O)[C@H](CCCCN)NC(=O)CNC(=O)[C@H](C)NC(=O)[C@]1(C)CCCC=CCCC[C@](C)(NC(=O)CN)C(=O)N[C@@H](CCCCN)C(=O)N[C@@H](CO)C(=O)N[C@@H](CCCCN)C(=O)N1)C(=O)N[C@@H](CCCCN)C(=O)N[C@@H](CC(N)=O)C(=O)N[C@@H](CC(C)C)C(=O)N[C@@]1(C)CCCC=CCCC[C@@](C)(C(=O)N[C@@H](CCCCN)C(=O)N[C@@H](CC(N)=O)C(N)=O)NC(=O)CNC(=O)[C@H](CO)NC(=O)[C@H]([C@@H](C)CC)NC1=O [compound 11] (H-G[S5]KSK[S5]AGKKIKNL[S5]ISG[S5]KN-NH2; staple 2-6, 15-19) | 186 (≈ 81.9 µM) | 125 (≈ 55 µM)
12 | CC[C@H](C)[C@H](NC(=O)[C@H](CCCN)NC(=O)[C@H](CCCN)NC(=O)CNC(=O)[C@H](CCCN)NC(=O)[C@]1(C)CCCC=CCCC[C@](C)(NC(=O)CN)C(=O)N[C@@H](Cc2ccccc2)C(=O)N[C@@H](CO)C(=O)N[C@@H](CCCN)C(=O)N1)C(=O)N[C@@H](CCCN)C(=O)N[C@@H](CC(N)=O)C(=O)N[C@@H](CC(C)C)C(=O)N[C@@]1(C)CCCC=CCCC[C@@](C)(C(=O)N[C@@H](CCCN)C(=O)NCC(N)=O)NC(=O)CNC(=O)[C@H](CO)NC(=O)[C@H]([C@@H](C)CC)NC1=O [compound 15] (H-G[S5]FS[Orn][S5][Orn]G[Orn][Orn]I[Orn]NL[S5]ISG[S5][Orn]G-NH2; staple 2-6, 15-19) | 25 (≈ 11.3 µM) | ~100 (≈ 45.3 µM)
